The text below walks through data of patent US20240208992A1, “MACROCYCLES AS CFTR MODULATORS” (Idorsia Pharmaceuticals Ltd, priority 2021, published 2024).

The experiment deals with human F508del-CFTR (Homo sapiens, UniProt P13569, DEL508-508). The experiment in a line: F508del-CFTR cell surface expression (corrector activity), DiscoveRx ß-galactosidase complementation chemiluminescence assay in recombinant U2OS cell line.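 As to all read-outs here: U2OS cells co-expressing ProLink-tagged F508del-CFTR and a membrane-anchored enzyme acceptor, where more surface CFTR restores β-galactosidase activity measured by chemiluminescence.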 The settings on record: U2OS cell line, 16h compound incubation; for EC50: EC50, F508del-CFTR cell surface expression, geomean values; for Emax: U2OS, in relation to the Emax of the corrector lumacaftor (=100%), arithmetic mean values.
Sequence of human F508del-CFTR (P13569 with tags, fused parts or gaps DEL508-508): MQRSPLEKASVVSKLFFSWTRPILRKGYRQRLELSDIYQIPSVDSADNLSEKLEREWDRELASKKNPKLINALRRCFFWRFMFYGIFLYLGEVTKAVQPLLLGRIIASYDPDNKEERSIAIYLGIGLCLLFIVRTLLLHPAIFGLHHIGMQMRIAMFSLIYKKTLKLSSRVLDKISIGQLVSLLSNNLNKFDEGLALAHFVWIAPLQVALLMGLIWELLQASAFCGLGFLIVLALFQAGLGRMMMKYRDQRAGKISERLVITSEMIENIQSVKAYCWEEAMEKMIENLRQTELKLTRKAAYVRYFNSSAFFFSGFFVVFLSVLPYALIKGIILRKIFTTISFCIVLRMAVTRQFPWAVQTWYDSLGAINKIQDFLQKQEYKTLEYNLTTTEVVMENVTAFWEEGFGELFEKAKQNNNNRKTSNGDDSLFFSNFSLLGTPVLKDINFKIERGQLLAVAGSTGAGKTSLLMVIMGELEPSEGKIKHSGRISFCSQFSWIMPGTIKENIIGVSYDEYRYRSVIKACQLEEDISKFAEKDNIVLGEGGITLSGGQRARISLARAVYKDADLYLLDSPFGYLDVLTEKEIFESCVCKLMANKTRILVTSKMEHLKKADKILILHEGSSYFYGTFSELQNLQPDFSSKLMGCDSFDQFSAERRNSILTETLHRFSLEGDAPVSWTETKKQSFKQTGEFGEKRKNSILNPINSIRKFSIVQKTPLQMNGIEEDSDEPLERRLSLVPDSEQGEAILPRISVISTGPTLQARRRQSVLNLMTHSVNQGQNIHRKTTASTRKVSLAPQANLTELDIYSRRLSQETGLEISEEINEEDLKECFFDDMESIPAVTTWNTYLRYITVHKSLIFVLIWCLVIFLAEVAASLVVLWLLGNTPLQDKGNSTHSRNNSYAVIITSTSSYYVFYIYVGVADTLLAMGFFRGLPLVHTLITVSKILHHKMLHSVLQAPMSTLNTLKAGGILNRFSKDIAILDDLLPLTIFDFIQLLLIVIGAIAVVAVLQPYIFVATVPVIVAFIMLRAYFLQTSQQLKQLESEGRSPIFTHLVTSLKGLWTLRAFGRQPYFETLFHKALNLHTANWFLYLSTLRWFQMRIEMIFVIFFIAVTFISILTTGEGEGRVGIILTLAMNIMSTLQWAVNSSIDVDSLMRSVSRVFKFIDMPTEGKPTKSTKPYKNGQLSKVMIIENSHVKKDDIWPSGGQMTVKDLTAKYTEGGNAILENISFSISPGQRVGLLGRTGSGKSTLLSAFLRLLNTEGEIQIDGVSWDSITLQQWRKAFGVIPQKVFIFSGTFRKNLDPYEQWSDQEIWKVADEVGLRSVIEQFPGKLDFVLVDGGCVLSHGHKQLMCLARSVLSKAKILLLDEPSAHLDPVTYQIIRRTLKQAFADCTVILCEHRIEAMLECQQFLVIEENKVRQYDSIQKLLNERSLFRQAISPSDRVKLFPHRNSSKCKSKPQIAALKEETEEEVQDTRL

As a reminder, the EC50 is the concentration giving half of the maximal effect. For orientation: Emax means the maximal effect, on the per cent scale that the assay sets. Regarding `CC(C)C[C@H]1C(=O)N(C)C2(CC2)C(=O)N[C@H](Cc2ccccc2)COc2cnc3ccccc3c2C(=O)N[C@H](C(=O)NCCc2cc(F)cc(F)c2)CC(=O)N1C` [Example 120, (3′S,7′S,13′R)-13′-benzyl-N-(3,5-difluorophenethyl)-7′-isobutyl-6′,9′-dimethyl-1′,5′,8′,11′-tetraoxo-2′,3′,4′,5′,6′,7′,8′,9′,11′,12′,13′,14′-dodecahydro-1′H-spiro[cyclopropane-1,10′-[1]oxa[4,7,10,14]tetraazacycloheptadecino[17,16-c]quinoline]-3′-carboxamide], the half-maximal effective concentration (EC50) worked out at 331 nM and the maximal effect (Emax) amounted to 212%.
On the same counts, the results for `CC(C)C[C@H]1C(=O)N(C)C2(CC2)C(=O)N[C@H](Cc2ccccc2)COc2cnc3ccccc3c2C(=O)N[C@H](C(=O)NCCc2nc(C3CC3)no2)CC(=O)N1C` [Example 121, (3′S,7′S,13′R)-13′-benzyl-N-(2-(3-cyclopropyl-1,2,4-oxadiazol-5-yl)ethyl)-7′-isobutyl-6′,9′-dimethyl-1′,5′,8′,11′-tetraoxo-2′,3′,4′,5′,6′,7′,8′,9′,11′,12′,13′,14′-dodecahydro-1′H-spiro[cyclopropane-1,10′-[1]oxa[4,7,10,14]tetraazacycloheptadecino[17,16-c]quinoline]-3′-carboxamide] are 615 nM and 354%.
Taken in the same sequence, the figures for `CC(C)C[C@H]1C(=O)N2CCCC[C@@H]2C(=O)N[C@H](Cc2ccccc2)COc2cnc3ccccc3c2C(=O)N[C@H](C(=O)NCCc2ccc(-c3ncccn3)cc2)CC(=O)N1C` [Example 122, (9S,13S,19aR,22R)-22-benzyl-13-isobutyl-12-methyl-7,11,14,20-tetraoxo-N-(4-(pyrimidin-2-yl)phenethyl)-7,8,9,10,11,12,13,14,17,18,19,19a,20,21,22,23-hexadecahydro-16H-pyrido[2′,1′:6,7][1]oxa[4,7,10,14]tetraazacycloheptadecino[17,16-c]quinoline-9-carboxamide] were 324 nM and 292%.
Taken in the same sequence, the figures for `CC(C)C[C@H]1C(=O)N2CCCC[C@@H]2C(=O)N[C@H](Cc2ccccc2)COc2cnc3ccccc3c2C(=O)N[C@H](C(=O)NCCc2cccc(-c3ncccn3)c2)CC(=O)N1C` [Example 123, (9S,13S,19aR,22R)-22-benzyl-13-isobutyl-12-methyl-7,11,14,20-tetraoxo-N-(3-(pyrimidin-2-yl)phenethyl)-7,8,9,10,11,12,13,14,17,18,19,19a,20,21,22,23-hexadecahydro-16H-pyrido[2′,1′:6,7][1]oxa[4,7,10,14]tetraazacycloheptadecino[17,16-c]quinoline-9-carboxamide] were 873 nM and 280%.
Take `CC(C)C[C@H]1C(=O)N2CCCC[C@@H]2C(=O)N[C@H](Cc2ccccc2)COc2cnc3ccccc3c2C(=O)N[C@H](C(=O)NCCc2cnn(C3CC3)c2)CC(=O)N1C` [Example 124, (9S,13S,19aR,22R)-22-benzyl-N-(2-(1-cyclopropyl-1H-pyrazol-4-yl)ethyl)-13-isobutyl-12-methyl-7,11,14,20-tetraoxo-7,8,9,10,11,12,13,14,17,18,19,19a,20,21,22,23-hexadecahydro-16H-pyrido[2′,1′:6,7][1]oxa[4,7,10,14]tetraazacycloheptadecino[17,16-c]quinoline-9-carboxamide]: the EC50 turned out to be 382 nM and the maximum response (Emax) was 347%.
On the same counts, the results for `Cc1cc(CCNC(=O)[C@@H]2CC(=O)N(C)[C@@H](CC(C)C)C(=O)N3CCCC[C@@H]3C(=O)N[C@H](Cc3ccccc3)COc3cnc4ccccc4c3C(=O)N2)ccc1-n1nccn1` [Example 125, (9S,13S,19aR,22R)-22-benzyl-13-isobutyl-12-methyl-N-(3-methyl-4-(2H-1,2,3-triazol-2-yl)phenethyl)-7,11,14,20-tetraoxo-7,8,9,10,11,12,13,14,17,18,19,19a,20,21,22,23-hexadecahydro-16H-pyrido[2′,1′:6,7][1]oxa[4,7,10,14]tetraazacycloheptadecino[17,16-c]quinoline-9-carboxamide] are 271 nM and 229%.
On the same counts, the results for `CC(C)C[C@H]1C(=O)N2CCCC[C@@H]2C(=O)N[C@H](Cc2ccccc2)COc2cnc3ccccc3c2C(=O)N[C@H](C(=O)NCCc2cc(F)cc(F)c2)CC(=O)N1C` [Example 126, (9S,13S,19aR,22R)-22-benzyl-N-(3,5-difluorophenethyl)-13-isobutyl-12-methyl-7,11,14,20-tetraoxo-7,8,9,10,11,12,13,14,17,18,19,19a,20,21,22,23-hexadecahydro-16H-pyrido[2′,1′:6,7][1]oxa[4,7,10,14]tetraazacycloheptadecino[17,16-c]quinoline-9-carboxamide] are 261 nM and 230%.
On the same counts, the results for `CC(C)C[C@H]1C(=O)N2CCCC[C@@H]2C(=O)N[C@H](Cc2ccccc2)COc2cnc3ccccc3c2C(=O)N[C@H](C(=O)NCCc2nc(C3CC3)no2)CC(=O)N1C` [Example 127, (9S,13S,19aR,22R)-22-benzyl-N-(2-(3-cyclopropyl-1,2,4-oxadiazol-5-yl)ethyl)-13-isobutyl-12-methyl-7,11,14,20-tetraoxo-7,8,9,10,11,12,13,14,17,18,19,19a,20,21,22,23-hexadecahydro-16H-pyrido[2′,1′:6,7][1]oxa[4,7,10,14]tetraazacycloheptadecino[17,16-c]quinoline-9-carboxamide] are 107 nM and 311%.
Take `CC(C)C[C@H]1C(=O)N2CCCC[C@@H]2C(=O)N[C@H](Cc2ccccc2)COc2cnc3ccccc3c2C(=O)N[C@H](C(=O)NCCc2noc(C3CCC3)n2)CC(=O)N1C` [Example 128, (9S,13S,19aR,22R)-22-benzyl-N-(2-(5-cyclobutyl-1,2,4-oxadiazol-3-yl)ethyl)-13-isobutyl-12-methyl-7,11,14,20-tetraoxo-7,8,9,10,11,12,13,14,17,18,19,19a,20,21,22,23-hexadecahydro-16H-pyrido[2′,1′:6,7][1]oxa[4,7,10,14]tetraazacycloheptadecino[17,16-c]quinoline-9-carboxamide]: the half-maximal effective concentration (EC50) stood at 190 nM and the Emax is 292%.
Regarding `Cc1cn(C)nc1CCNC(=O)[C@@H]1CC(=O)N(C)[C@@H](CC(C)C)C(=O)N2CCCC[C@@H]2C(=O)N[C@H](Cc2ccccc2)COc2cnc3ccccc3c2C(=O)N1` [Example 129, (9S,13S,19aR,22R)-22-benzyl-N-(2-(1,4-dimethyl-1H-pyrazol-3-yl)ethyl)-13-isobutyl-12-methyl-7,11,14,20-tetraoxo-7,8,9,10,11,12,13,14,17,18,19,19a,20,21,22,23-hexadecahydro-16H-pyrido[2′,11:6,7][1]oxa[4,7,10,14]tetraazacycloheptadecino[17,16-c]quinoline-9-carboxamide], the concentration for a half-maximal effect (EC50) was 406 nM and the Emax came to 264%.
`COc1cccc(-c2noc(CCNC(=O)[C@@H]3CC(=O)N(C)[C@@H](CC(C)C)C(=O)N4CCOC[C@@H]4C(=O)N[C@H](Cc4ccccc4)COc4cnc5ccccc5c4C(=O)N3)n2)c1` [Example 130, (9S,13S,19aR,22R)-22-benzyl-13-isobutyl-N-(2-(3-(3-methoxyphenyl)-1,2,4-oxadiazol-5-yl)ethyl)-12-methyl-7,11,14,20-tetraoxo-7,8,9,10,11,12,13,14,16,17,19,19a,20,21,22,23-hexadecahydro-[1,4]oxazino[3′,4′:6,7][1]oxa[4,7,10,14]tetraazacycloheptadecino[17,16-c]quinoline-9-carboxamide]: the half-maximal effective concentration (EC50) is 1000 nM and the Emax is 264%.
